Experimental data: PubChem BioAssay (NCI)
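Cultured in 96-well plates, cells were exposed to test compound for 48 hours across five concentrations. At the GI50, growth is halved. TGI marks complete inhibition of growth.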

How the values were obtained:
Experiment in all cases: growth of human tumour cells (NCI), 48 h; in the data active = GI50 below about 0.43 µM; inactive = the rest
[1] = tested on: HOP-92 NSCLC
[2] = tested on: SF-539 CNS
[3] = tested on: K-562 leukemia
[4] = tested on: SN12C renal
[5] = tested on: OVCAR-5 ovarian
[6] = tested on: MDA-MB-231 breast
[7] = tested on: U251 CNS
[8] = tested on: SK-MEL-5 melanoma
[9] = tested on: EKVX NSCLC
[10] = tested on: LOX IMVI melanoma
[11] = tested on: MCF7 breast
[12] = tested on: SNB-19 CNS
[13] = tested on: MDA-N
[14] = tested on: NCI-H460 lung
[15] = tested on: SNB-75 CNS
[16] = tested on: M14 melanoma
[17] = tested on: MOLT-4 leukemia
[18] = tested on: CAKI-1 renal
[19] = tested on: T-47D breast
[20] = tested on: A549 NSCLC
[21] = tested on: NCI/ADR-RES ovarian
[22] = tested on: UACC-257 melanoma
[23] = tested on: OVCAR-4 ovarian
[24] = tested on: KM12 colon
[25] = tested on: 786-0 renal
[26] = tested on: COLO 205 colon
[27] = tested on: ACHN renal
[28] = tested on: HCT-15 colon
[29] = tested on: NCI-H522 lung
[30] = tested on: HOP-62 NSCLC
[31] = tested on: MDA-MB-435
[32] = tested on: BT-549 breast
[33] = tested on: A498 renal
[34] = tested on: SW-620 colon
[35] = tested on: OVCAR-8 ovarian
[36] = tested on: SR leukemia
[37] = tested on: SK-MEL-2 melanoma
[38] = tested on: UACC-62 melanoma
[39] = tested on: UO-31 renal
[40] = tested on: SF-268 CNS
[41] = tested on: CCRF-CEM leukemia
[42] = tested on: SK-MEL-28 melanoma
[43] = tested on: RPMI-8226 leukemia
[44] = tested on: HCT-116 colon
[45] = tested on: NCI-H23 lung
[46] = tested on: PC-3 prostate
[47] = tested on: DU-145 prostate
[48] = tested on: HT29 colon
[49] = tested on: SF-295 CNS
[50] = tested on: TK-10 renal
[51] = tested on: HL-60(TB) leukemia
[52] = tested on: SK-OV-3 ovarian
[53] = tested on: HS 578T breast
[54] = tested on: IGROV1 ovarian
[55] = tested on: OVCAR-3 ovarian
[56] = tested on: HCC-2998 colon
[57] = tested on: NCI-H226 lung
[58] = tested on: MALME-3M melanoma
[59] = tested on: RXF 393 renal

COc1cc2c3c(n(C)c(=O)c2cc1OC)-c1cc2c(cc1/C3=C\CCCCCBr)OCO2
38.7 µM: TGI [1]
25.1 µM: TGI [30]
26 µM: TGI [43]
38.3 µM: TGI [41]
inactive: GI50 [2] 5.7 µM | GI50 [30] 3.09 µM | GI50 [31] 19.2 µM | GI50 [38] 3.87 µM | GI50 [44] 6.14 µM | GI50 [47] 5.54 µM
29 µM: TGI [38]
7.92 µM: TGI [19]
43 µM: TGI [15]
89.8 µM: TGI [2]
69.8 µM: TGI [14]
46 µM: TGI [33]
20.3 µM: TGI [51]
55.8 µM: TGI [50]
79.3 µM: TGI [52]
47.8 µM: TGI [39]
0.605 µM: TGI [54]
24.1 µM: TGI [7]
30.2 µM: TGI [3]
13.7 µM: TGI [10]
52.4 µM: TGI [29]
44.7 µM: TGI [44]
> 100 µM: TGI [4] | TGI [5] | TGI [6] | TGI [9] | TGI [11] | TGI [12] | TGI [13] | TGI [16] | TGI [18] | TGI [20] | TGI [21] | TGI [22] | TGI [23] | TGI [24] | TGI [25] | TGI [26] | TGI [28] | TGI [31] | TGI [32] | TGI [34] | TGI [35] | TGI [37] | TGI [40] | TGI [45] | TGI [46] | TGI [47] | TGI [48] | TGI [49] | TGI [53]
20.7 µM: TGI [8]
10.5 µM: TGI [17]
14.1 µM: TGI [36]
41.7 µM: TGI [27]
3.24 µM: TGI [42]

COc1ccc2c(c1O)[C@@]13CCCC=C1[C@@H](C2)[N+](C)(C)CC3
> 100 µM: TGI [1] | TGI [3] | TGI [4] | TGI [5] | TGI [6] | TGI [7] | TGI [8] | TGI [9] | TGI [10] | TGI [11] | TGI [12] | TGI [55] | TGI [13] | TGI [14] | TGI [15] | TGI [16] | TGI [56] | TGI [18] | TGI [19] | TGI [20] | TGI [21] | TGI [22] | TGI [23] | TGI [24] | TGI [25] | TGI [26] | TGI [27] | TGI [28] | TGI [29] | TGI [30] | TGI [31] | TGI [32] | TGI [34] | TGI [35] | TGI [57] | TGI [37] | TGI [38] | TGI [39] | TGI [40] | TGI [41] | TGI [42] | TGI [44] | TGI [45] | TGI [58] | TGI [46] | TGI [47] | TGI [59] | TGI [48] | TGI [49] | TGI [50] | TGI [51] | TGI [52] | TGI [53] | TGI [54]

O=S(=O)(/N=S(/Nc1ccccc1)C(F)(F)Cl)c1ccccc1 (centres undefined)
> 100 µM: TGI [1] | TGI [2] | TGI [3] | TGI [4] | TGI [5] | TGI [6] | TGI [7] | TGI [8] | TGI [9] | TGI [10] | TGI [11] | TGI [12] | TGI [55] | TGI [13] | TGI [14] | TGI [15] | TGI [16] | TGI [17] | TGI [19] | TGI [20] | TGI [21] | TGI [22] | TGI [23] | TGI [24] | TGI [25] | TGI [26] | TGI [27] | TGI [28] | TGI [30] | TGI [31] | TGI [33] | TGI [34] | TGI [35] | TGI [57] | TGI [36] | TGI [37] | TGI [38] | TGI [39] | TGI [40] | TGI [41] | TGI [42] | TGI [43] | TGI [44] | TGI [45] | TGI [58] | TGI [46] | TGI [47] | TGI [59] | TGI [48] | TGI [49] | TGI [50] | TGI [51] | TGI [52] | TGI [53] | TGI [54]
